13 compounds from ChEMBL document CHEMBL3272195, “Synthesis and antimicrobial activity of certain 6H-1,2,4-oxadiazin-3(2H)-ones” (1977) can be followed below.

≈ marks a conversion by molar mass, not a printed value. Calls of active or inactive are those of the source. No cut-off for these calls is given here. Some results are limits rather than exact numbers.

In assay [1] the test system is Escherichia coli. Description: Antimicrobial activity against Escherichia coli after 24 hrs by broth dilution assay. The format is functional.
For assay [2], the system named is Trichophyton mentagrophytes. Briefly: Antimicrobial activity against Trichophyton mentagrophytes after 48 hrs by broth dilution assay. The format is functional. A general note: In broth dilution the organism is exposed to a series of concentrations in liquid medium.
Another assay concerns Candida albicans. Briefly: Antimicrobial activity against Candida albicans after 48 hrs by broth dilution assay. The format is functional.
The test system of assay [3] is Pseudomonas aeruginosa. Briefly: Antimicrobial activity against Pseudomonas aeruginosa after 24 hrs by broth dilution assay. Type of assay: functional.
For assay [4], the system named is Pseudomonas aeruginosa. Briefly: Antimicrobial activity against Pseudomonas aeruginosa paper disc treated with 24 hrs urine sample from 100 mg/kg, po compound treated ICR mouse measured after 18 to 24 hrs by disc diffusion assay. On the set-up: dose 100 mg/kg. Type of assay: functional, organism-based.
Assay [5] has as its system Escherichia coli. Briefly: Antimicrobial activity against Escherichia coli paper disc treated with 24 hrs urine sample from 100 mg/kg, po compound treated ICR mouse measured after 18 to 24 hrs by disc diffusion assay. Type of assay: functional, organism-based. On the set-up: dose 100 mg/kg. (A growth-free zone around the sample is the usual read-out of agar diffusion tests.)

The next assay has as its system Staphylococcus aureus. Description: Antimicrobial activity against Staphylococcus aureus after 24 hrs by broth dilution assay. Type of assay: functional.
The subject of a further assay is Human rhinovirus A13. Briefly: Antiviral activity against Rhinovirus A13. The format is functional.
The next assay deals with Human alphaherpesvirus 1. Description: Antiviral activity against Herpes simplex virus type 1. The format is functional, organism-based.
Another assay concerns Human respirovirus 3. Description: Antiviral activity against Parainfluenza virus 3. The format is functional, organism-based.

As for `O=C1CON(C(=O)OCc2ccccc2)C(=O)N1`, the MIC with Escherichia coli [1] was 20 µM (≈ 5 µg/mL); in [2], over 400 µM; with Candida albicans, over 400 µM; against Pseudomonas aeruginosa [3] it was 20 µM (≈ 5 µg/mL); with Staphylococcus aureus it was 80 µM (≈ 20 µg/mL). Moreover, the result in the assay with Pseudomonas aeruginosa [4], with Escherichia coli [5], in the assay with Human rhinovirus A13, in the assay on Human alphaherpesvirus 1 and in the assay with Human respirovirus 3 was inactive.

On to `NC1=NC(=O)NOC1`, for which the MIC was 10 µM (≈ 1.15 µg/mL) against Escherichia coli [1]; over 400 µM in [2]; over 400 µM against Candida albicans; 80 µM (≈ 9.21 µg/mL) against Pseudomonas aeruginosa [3]; 320 µM (≈ 36.8 µg/mL) against Staphylococcus aureus. For the same compound, the outcome in the assay with Pseudomonas aeruginosa [4] and with Escherichia coli [5] was Active. Moreover, the result with Human rhinovirus A13, in the assay on Human alphaherpesvirus 1 and with Human respirovirus 3 was inactive.

With `O=C1N=C(NO)CON1`, the MIC (against Escherichia coli [1]; in assay [2]; with Candida albicans; in the assay on Pseudomonas aeruginosa [3]; in the assay with Staphylococcus aureus) was over 400 µM in each case. Further, the result in the assay with Human rhinovirus A13, in the assay with Human alphaherpesvirus 1 and with Human respirovirus 3 was inactive.

`NNC1=NC(=O)NOC1`: the MIC (in the assay on Escherichia coli [1]; in [2]; against Candida albicans; in the assay with Pseudomonas aeruginosa [3]; with Staphylococcus aureus) was over 400 µM each time. In addition, the result with Human rhinovirus A13, in the assay on Human alphaherpesvirus 1 and in the assay on Human respirovirus 3 was inactive.

`O=C1N=C(NC(c2ccccc2)c2ccccc2)CON1`: the MIC with Escherichia coli [1] is 320 µM (≈ 90 µg/mL); in assay [2] it was over 400 µM; in the assay on Candida albicans, over 400 µM; against Pseudomonas aeruginosa [3], 320 µM (≈ 90 µg/mL); with Staphylococcus aureus, 160 µM (≈ 45 µg/mL). For the same compound, the result in the assay on Human rhinovirus A13, with Human alphaherpesvirus 1 and in the assay on Human respirovirus 3 was inactive.

For the compound `CN1OCC(=S)NC1=O`, the MIC against Escherichia coli [1] is over 400 µM; in [2], 160 µM (≈ 23.4 µg/mL); in the assay on Candida albicans, 400 µM (≈ 58.5 µg/mL); against Pseudomonas aeruginosa [3], over 400 µM; against Staphylococcus aureus, over 400 µM. The outcome with Human rhinovirus A13, in the assay on Human alphaherpesvirus 1 and in the assay on Human respirovirus 3 was inactive.

In the case of `O=C1NOCC(=S)N1`, the MIC against Escherichia coli [1] is under 5 µM; in [2], 320 µM (≈ 42.3 µg/mL); with Candida albicans, 320 µM (≈ 42.3 µg/mL); in the assay on Pseudomonas aeruginosa [3] it was 20 µM (≈ 2.64 µg/mL); in the assay with Staphylococcus aureus, 10 µM (≈ 1.32 µg/mL). For the same compound, the outcome in the assay with Pseudomonas aeruginosa [4], with Escherichia coli [5], in the assay on Human rhinovirus A13, in the assay on Human alphaherpesvirus 1 and in the assay on Human respirovirus 3 was inactive.

As to `O=C1N=C(NCc2ccccc2)CON1`, the MIC is 320 µM (≈ 65.7 µg/mL) in the assay on Escherichia coli [1]; over 400 µM in assay [2]; over 400 µM against Candida albicans; over 400 µM against Pseudomonas aeruginosa [3]; 400 µM (≈ 82.1 µg/mL) against Staphylococcus aureus. Moreover, the result in the assay with Human rhinovirus A13, with Human alphaherpesvirus 1 and in the assay on Human respirovirus 3 was inactive.

In the case of `CNC1=NC(=O)NOC1`, the minimal inhibitory concentration (MIC) with Escherichia coli [1] was 320 µM (≈ 41.3 µg/mL); in [2], 320 µM (≈ 41.3 µg/mL); in the assay on Candida albicans, over 400 µM; in the assay on Pseudomonas aeruginosa [3], over 400 µM; against Staphylococcus aureus it was 320 µM (≈ 41.3 µg/mL). Also, the result in the assay with Human rhinovirus A13, with Human alphaherpesvirus 1 and in the assay on Human respirovirus 3 was inactive.

`CCOC(=O)CONC(N)=O`: the MIC with Escherichia coli [1] was 160 µM (≈ 25.9 µg/mL); in [2], over 400 µM; against Candida albicans it was over 400 µM; against Pseudomonas aeruginosa [3], 320 µM (≈ 51.9 µg/mL); against Staphylococcus aureus it was 80 µM (≈ 13 µg/mL).

`O=C1CONC(=O)N1`: the MIC against Escherichia coli [1] was 10 µM (≈ 1.16 µg/mL); in assay [2], over 400 µM; in the assay with Candida albicans, over 400 µM; against Pseudomonas aeruginosa [3] it was 40 µM (≈ 4.64 µg/mL); in the assay with Staphylococcus aureus, 20 µM (≈ 2.32 µg/mL). The result in the assay with Pseudomonas aeruginosa [4], in the assay with Escherichia coli [5], in the assay on Human rhinovirus A13, with Human alphaherpesvirus 1 and in the assay with Human respirovirus 3 was inactive.

For the compound `O=C1NC(=S)CON1Cc1ccccc1`, the MIC was over 400 µM against Escherichia coli [1]; 160 µM (≈ 35.6 µg/mL) in assay [2]; 320 µM (≈ 71.1 µg/mL) in the assay with Candida albicans; over 400 µM in the assay on Pseudomonas aeruginosa [3]; over 400 µM against Staphylococcus aureus. Also, the result with Human rhinovirus A13, with Human alphaherpesvirus 1 and with Human respirovirus 3 was inactive.

In the case of `CN(C)C1=NC(=O)NOC1`, the minimal inhibitory concentration (MIC) in the assay on Escherichia coli [1] is 160 µM (≈ 22.9 µg/mL); in assay [2], over 400 µM; against Candida albicans it was over 400 µM; in the assay with Pseudomonas aeruginosa [3] it was over 400 µM; with Staphylococcus aureus it was 320 µM (≈ 45.8 µg/mL). Also, the result with Human rhinovirus A13, with Human alphaherpesvirus 1 and with Human respirovirus 3 was inactive.

One may read the MIC as the lowest concentration found to suppress growth. A high value points to a need for much substance.
